This note sets out measurements from patent EP0941220B1, “A PROCESS FOR RECOVERY OF ASCORBIC ACID” (Yissum Research And Development Company Of The Hebrew …, priority 1996, dated 1998).

A short description of the data set: Temperature sensitivity of carboxylic acid extraction by 0.5 mol/kg Alamine 304 + 10% octanol in kerosene. The data set is classed as physicochemical. The following applies: distribution coefficient at 30°C divided by that at 75°C. An excerpt:
Referring now to said patents and the teachings thereof, one finds that the process taught therein utilizes the effect of temperature on phosphoric and carboxylic acid extraction by amine-based extractants. The term "amine" as used herein means water-immiscible amine, with a total of at least 20 carbon atoms on its chains. Said patents teach that such amine-based extractants (ABE) lose much of their extraction efficiency upon temperature elevation. This loss of efficiency is referred to as "temperature sensitivity of extraction" (TS). The magnitude of this TS can be represented by the ratio of the distribution coefficient at the lower temperature (DT1) to the distribution coefficient at the higher temperature (DT2). High TS provides for the purification and the concentration of carboxylic acids through altering the temperature between extraction and back-extraction. The acid is extracted from a feed solution by an ABE at low temperature, and is then stripped or back-extracted with water at an elevated temperature. […] This process is referred to herein as the "temperature swing process" (TSP).

Regarding `CCC(=O)O` [Propionic, Propionic acid], the “TS in Equilibrium with Aqueous Solutions of (mol/kg) 0.05” value (0.05 mol/kg equilibrium aqueous phase) worked out at 1.7. Further, for the setting “0.2 mol/kg equilibrium aqueous phase”, the “TS in Equilibrium with Aqueous Solutions of (mol/kg) 0.2” value turned out to be 1.5. Besides, for the setting “0.3 mol/kg equilibrium aqueous phase”, the “TS in Equilibrium with Aqueous Solutions of (mol/kg) 0.3” value is 1.3. In addition, the “TS in Equilibrium with Aqueous Solutions of (mol/kg) 0.475” value (0.475 mol/kg equilibrium aqueous phase) was 1.1.
